One assay has as its target T1, human LPA3 receptor (Homo sapiens, UniProt Q9UBY5).
T1 construct: expressed in transfected cells; host or cells: CHO cells (Chinese hamster ovary) with the LPA1 receptor knocked down
T1 sequence (Q9UBY5 1-353): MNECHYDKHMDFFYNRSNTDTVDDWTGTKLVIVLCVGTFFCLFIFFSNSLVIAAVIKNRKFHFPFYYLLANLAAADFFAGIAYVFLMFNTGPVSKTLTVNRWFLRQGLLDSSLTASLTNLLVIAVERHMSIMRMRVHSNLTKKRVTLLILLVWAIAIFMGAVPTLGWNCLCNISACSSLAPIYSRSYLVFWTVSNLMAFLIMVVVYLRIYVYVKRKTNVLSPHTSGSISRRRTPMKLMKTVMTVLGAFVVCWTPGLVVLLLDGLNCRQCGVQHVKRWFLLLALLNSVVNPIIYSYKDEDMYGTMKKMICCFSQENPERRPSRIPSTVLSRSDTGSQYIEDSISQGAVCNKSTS
The assay can be described thus: LPA3 agonist activity measurement (Method A): intracellular Ca2+ in RH7777 cells stably expressing human LPA3 receptor. It is filed as cell-based. Particulars: RH7777 cells expressing human LPA3, Ca2+ fluorescence. Here is the method:
(Method A) Using RH7777 cells derived from rat hepatocellular carcinoma as a host, each cell line (Multispan, Inc., Cat No. C1048-6, C1050-6, and C1053-6) stably expressing a human LPA3 receptor was subjected to an experiment. The cells cultured until reaching subconfluence were detached, and suspended in a medium (DMEM containing 10% FBS, 1% penicillin/streptomycin, 30 μg/mL puromycin) so as to be 4×10^5 cells/mL. The cells were seeded in a 96 well optical bottom plate (Asahi Techno Glass, MT4940-010) at 100 μL/well, and cultured under conditions of 5% CO2 and 37° C. for 1 day.
On the day of measurement, the medium was removed, and a medium containing 0.2% FBS was added at 100 μL/well, and cultured for 4 to 6 hours. Thereafter, the medium was removed, and an assay buffer (Hank's Balanced Salt Solution containing 0.02 mol/L HEPES, 2.5 mmol/L probenecid, 0.1% BSA, 5 μmol/L Fluo-4, Quenching Buffer, Pluronic F-127) was added at 100 μL/well, and the cells were incubated with 5% CO2 at 37° C. for about 1 hour. The plate was set in a fluorescent drug screening system (Hamamatsu Photonics K.K.), and after 30 seconds from the start of measurement, 25 μL of a cell-added solution containing only a test substance or dimethyl sulfoxide (hereinafter, it is abbreviated as DMSO.) was added thereto. After 3 minutes, 25 μL of a ligand was further added thereto, and then measurement was performed for 4 minutes. A fluorescence wavelength of 540 nm at an excitation wavelength of 480 nm was measured, and intracellular Ca^2+ concentration was indicated by fluorescence intensity change.
Agonist action of the test substance was calculated as a ratio increase degree after addition of the test substance when a ratio increase value indicated by cells to which a cell-added solution containing only DMSO was added at the time of ligand addition was set to 100%. Further, EC50 value was calculated as a 50% action concentration using Microsoft Excel, from an activity (%) at concentrations before and after agonist activity exceeds 50%.
Turning to `Cc1ccc(Cn2c(C)c(-c3cccc(F)c3)c(CNC3CCC3)c2C(=O)O)cc1` [Example 6(2), 3-[(Cyclobutylamino)methyl]-4-(3-fluorophenyl)-5-methyl-1-(4-methylbenzyl)-1H-pyrrole-2-carboxylic acid], the midpoint of the response, the EC50, lay at 900 nM.

Turning to `Cc1ccc(Cn2c(C(=O)O)c(CNC3CCC3)c3ccccc32)cc1` [Example 2, 3-[(Cyclobutylamino)methyl]-1-(4-methylbenzyl)-1H-indole-2-carboxylic acid], the EC50 – broadly, the concentration needed to bring the measured effect to its halfway point – was found to be 60 nM.

`CCn1c(C(=O)O)c(CNC2CCC2)c2ccccc21` [Example 1(4), 3-[(Cyclobutylamino)methyl]-1-ethyl-1H-indole-2-carboxylic acid] gave an EC50 of 600 nM.

Turning to `O=C(O)c1c(CNC2CCC2)c2ccccc2n1CC1CC1(F)F` (centres unmarked) [Example 1(3), 3-[(Cyclobutylamino)methyl]-1-[(2,2-difluorocyclopropyl)methyl]-1H-indole-2-carboxylic acid], the EC50 came out at 500 nM.

Regarding `Cc1ccc(Cn2c3c(c(CNC4CCC4)c2C(=O)O)CCCC3)cc1` [Example 7, 3-[(Cyclobutylamino)methyl]-1-(4-methylbenzyl)-4,5,6,7-tetrahydro-1H-indole-2-carboxylic acid], it took 100 nM to reach a half-maximal effect (EC50).

Turning to `Cc1ccc(Cn2c(C(=O)O)c(C(C)NC3CCC3)c3ccccc32)cc1` (centres unmarked) [Example 5, 3-[1-(Cyclobutylamino)ethyl]-1-(4-methylbenzyl)-1H-indole-2-carboxylic acid], the half-maximal effective concentration (EC50) worked out at 100 nM.

As to `Cc1ccc(Cn2c(C(=O)O)c(CNC3CC3)c3ccccc32)cc1` [Example 2(18), 3-[(Cyclopropylamino)methyl]-1-(4-methylbenzyl)-1H-indole-2-carboxylic acid], it took 1000 nM to reach a half-maximal effect (EC50).

`C=Cc1c(CNC2CCC2)c(C(=O)O)n(Cc2ccc(C)cc2)c1C` [Example 6(7), 3-[(Cyclobutylamino)methyl]-5-methyl-1-(4-methylbenzyl)-4-vinyl-1H-pyrrole-2-carboxylic acid] displayed an EC50 of 1000 nM.

Take `Cc1ccc(Cn2c(Br)c(C)c(CNC3CCC3)c2C(=O)O)cc1` [Example 2(34), 5-Bromo-3-[(cyclobutylamino)methyl]-4-methyl-1-(4-methylbenzyl)-1H-pyrrole-2-carboxylic acid]: the concentration giving a half-maximal response (EC50) stood at 40 nM.

The target of a further assay is T1, human LPA3 receptor. Briefly: LPA3 agonist activity measurement (Method B): intracellular Ca2+ in LPA1-knockdown CHO cells stably expressing human LPA3 receptor. In kind it is cell-based. The note with it: LPA1-knockdown CHO cells expressing human LPA3, Ca2+ fluorescence. From the text:
(Method B) A cell line stably expressing a human LPA3 receptor using a cell obtained by knocking down an LPA1 receptor of CHO cells of Chinese hamster ovary as a host was subjected to an experiment. The cryopreserved cells were thawed and suspended in loading buffer (Hank's Balanced Salt Solution containing 0.02 mol/L HEPES, 2.5 mmol/L probenecid, 0.1% BSA, 5 μmol/L Fluo-4, Quenching Buffer, Pluronic F-127) so as to be 1×10^5 cells/mL. The plate was allowed to stand under conditions of 5% CO2 and 37° C. for 1 hour, then the buffer was replaced with an assay buffer (Hank's Balanced Salt Solution containing 0.02 mol/L HEPES, 2.5 mmol/L probenecid, 0.1% BSA), and the cells were seeded in a 384 well optical bottom plate (384 Well microplate, low volume, Corning, 3540) at 10 μL/well.
A plate was set in a fluorescent drug screening system (Hamamatsu Photonics K.K.), and after 15 seconds from the start of the measurement, 10 μL of a positive control, the test substance or the cell-added solution containing only DMSO was added thereto, and the measurement was performed for 1 minute. A fluorescence wavelength of 540 nm at an excitation wavelength of 480 nm was measured, and intracellular […] concentration was indicated by fluorescence intensity change.
Agonist action of the test substance was calculated as a ratio increase degree after addition of the test substance when a ratio increase value indicated by the positive control or the cell-added solution containing was added was set to 100%. Further, EC50 value was calculated as a 50% action concentration using Microsoft Excel, from an activity (%) at concentrations before and after agonist activity exceeds 50%.
`CSc1ccccc1Cn1c(C(=O)O)c(CNC2CCC2)c2ccccc21` [Example 2(75), 3-[(Cyclobutylamino)methyl]-1-[2-(methylthio)benzyl]-1H-indole-2-carboxylic acid] displayed a concentration giving a half-maximal response (EC50) of 60 nM.

`O=C(O)c1c(CNC2CCC2)c2ccccc2n1Cc1cccs1` [Example 2(74), 3-[(Cyclobutylamino)methyl]-1-(2-thienylmethyl)-1H-indole-2-carboxylic acid] had an EC50 of 30 nM.

For `O=C(O)c1c(CNC2CCC2)c2ccccc2n1Cc1ccccc1Cl` [Example 2(6), 1-(2-Chlorobenzyl)-3-[(cyclobutylamino)methyl]-1H-indole-2-carboxylic acid], the EC50 turned out to be 50 nM.

With `CCn1c(C(=O)O)c(CNC2CCC2)c2ccccc21` [Example 1(4), 3-[(Cyclobutylamino)methyl]-1-ethyl-1H-indole-2-carboxylic acid], the EC50 came out at 600 nM.

Consider `O=C(O)c1c(CNC2CCC2)c2ccccc2n1CC1CC1(F)F` (centres unmarked) [Example 1(3), 3-[(Cyclobutylamino)methyl]-1-[(2,2-difluorocyclopropyl)methyl]-1H-indole-2-carboxylic acid], for which the EC50 stood at 200 nM.

The compound `O=C(O)c1c(CNC2CCC2)c2ccccc2n1Cc1cccc(C2CC2)c1` [Example 2(41), 3-[(Cyclobutylamino)methyl]-1-(3-cyclopropylbenzyl)-1H-indole-2-carboxylic acid] gave an EC50 of 40 nM.

Consider `O=C(O)c1c(CNC2CCC2)c2ccccc2n1Cc1ccccc1OC(F)F` [Example 2(53), 3-[(Cyclobutylamino)methyl]-1-[2-(difluoromethoxy)benzyl]-1H-indole-2-carboxylic acid], for which the concentration for a half-maximal effect (EC50) stood at 100 nM.

Compound `Cc1ccc(Cn2c(C(=O)O)c(CNC3CCC3C)c3ccccc32)cc1` (centres unmarked) [Example 2(46)] had a half-maximal effective concentration (EC50) of 100 nM.

For `Cc1ccc(Cn2c(C(=O)NS(C)(=O)=O)c(CNC3CCC3)c3ccccc32)cc1` [Example 19, 3-[(Cyclobutylamino)methyl]-1-(4-methylbenzyl)-N-(methylsulfonyl)-1H-indole-2-carboxamide], the 50% effective concentration (EC50) is 60 nM.

In turn, `Cc1ccc(Cn2c(C(=O)O)c(CNC3CCC3)c3cccnc32)cc1` [Example 2(49), 3-[(Cyclobutylamino)methyl]-1-(4-methylbenzyl)-1H-pyrrolo[2,3-b]pyridine-2-carboxylic acid] showed an EC50 of 100 nM.

Regarding `O=C(O)c1c(CNC2CC2)c2ccccc2n1Cc1ccccc1Cl` [Example 2(72), 1-(2-Chlorobenzyl)-3-[(cyclopropylamino)methyl]-1H-indole-2-carboxylic acid], the concentration for a half-maximal effect (EC50) was found to be 100 nM.

In the case of `O=C(O)c1c(CNC2CCCC2)c2ccccc2n1Cc1ccccc1Cl` [Example 2(70), 1-(2-Chlorobenzyl)-3-[(cyclopentylamino)methyl]-1H-indole-2-carboxylic acid], the 50% effective concentration (EC50) was found to be 200 nM.

Take `Cc1ccc(Cn2c(C(=O)O)c(CNC3CSC3)c3ccccc32)cc1` [Example 2(71), 1-(4-Methylbenzyl)-3-[(3-thiethanylamino)methyl]-1H-indole-2-carboxylic acid]: the 50% effective concentration (EC50) was 60 nM.

Compound `Cc1ccc(Cn2c(C(=O)O)c(CNC3CCC3)c3cccc(C#N)c32)cc1` [Example 9(1), 7-Cyano-3-[(cyclobutylamino)methyl]-1-(4-methylbenzyl)-1H-indole-2-carboxylic acid] displayed a concentration for a half-maximal effect (EC50) of 200 nM.
